Calls of active or inactive are those of the source.
Tests used:
[1] = biological target: Glucose-6-phosphate 1-dehydrogenase (Homo sapiens, UniProt P11413); experiment: inhibition of Homo sapiens G6PD, dose series – biochemical, fluorescence, selectivity assay for P. falciparum G6PD inhibitor project, dose response (AID 504792); format: functional
[2] = biological target: T1, Rac GTPase-activating protein 1 (Homo sapiens, UniProt Q9H0H5); experiment: blockers of MgcRacGAP-driven Rac1 GTP hydrolysis – biochemical, ADP Hunter fluorescence, primary and confirmatory, confirmation (AID 624330); format: functional
T1 sequence (Q9H0H5 whole entry): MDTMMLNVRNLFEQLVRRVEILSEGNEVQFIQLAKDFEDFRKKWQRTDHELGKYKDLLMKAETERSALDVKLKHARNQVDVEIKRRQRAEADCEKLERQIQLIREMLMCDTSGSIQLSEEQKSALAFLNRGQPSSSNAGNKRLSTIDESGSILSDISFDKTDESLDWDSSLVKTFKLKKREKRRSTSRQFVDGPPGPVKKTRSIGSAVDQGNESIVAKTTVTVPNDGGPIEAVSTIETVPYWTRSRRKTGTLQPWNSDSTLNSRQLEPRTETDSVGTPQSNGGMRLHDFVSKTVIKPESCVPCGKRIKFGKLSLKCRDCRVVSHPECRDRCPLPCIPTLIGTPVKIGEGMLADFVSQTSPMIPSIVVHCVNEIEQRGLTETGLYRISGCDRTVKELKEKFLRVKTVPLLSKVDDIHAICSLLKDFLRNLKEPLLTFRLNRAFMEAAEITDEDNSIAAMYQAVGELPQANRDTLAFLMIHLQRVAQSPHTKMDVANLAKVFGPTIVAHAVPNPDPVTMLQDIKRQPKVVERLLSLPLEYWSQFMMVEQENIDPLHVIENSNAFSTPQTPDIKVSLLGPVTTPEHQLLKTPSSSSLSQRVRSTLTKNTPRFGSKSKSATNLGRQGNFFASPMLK

[3] = Trypanosoma cruzi growth suppression in host cells – NIH3T3 host cells, beta-gal luminescence, confirmation (AID 2044); format: functional, cell-based;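 also: intracellular parasites grown in NIH/3T3 mouse fibroblasts as host cells; luminescent beta-galactosidase reporter signal from transgenic T. cruzi replicating inside host cells; inhibitors lower the luminescence signal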
[4] = NIH3T3 cell viability loss – ATP luminescence, mouse fibroblasts, counter-screen, dose response (AID 2010); format: functional, cell-based;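 also: cells exposed to compound for about 90 hours before reading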
[5] = biological target: T2, Short transient receptor potential channel 4 (Mus musculus, UniProt Q9QUQ5); experiment: calcium entry via TRPC4 opening agents – cell-based, HEK293 TRPC4/mu-opioid, Fluo-4 calcium, dose response (AID 434937); format: functional
T2 sequence (Q9QUQ5 whole entry): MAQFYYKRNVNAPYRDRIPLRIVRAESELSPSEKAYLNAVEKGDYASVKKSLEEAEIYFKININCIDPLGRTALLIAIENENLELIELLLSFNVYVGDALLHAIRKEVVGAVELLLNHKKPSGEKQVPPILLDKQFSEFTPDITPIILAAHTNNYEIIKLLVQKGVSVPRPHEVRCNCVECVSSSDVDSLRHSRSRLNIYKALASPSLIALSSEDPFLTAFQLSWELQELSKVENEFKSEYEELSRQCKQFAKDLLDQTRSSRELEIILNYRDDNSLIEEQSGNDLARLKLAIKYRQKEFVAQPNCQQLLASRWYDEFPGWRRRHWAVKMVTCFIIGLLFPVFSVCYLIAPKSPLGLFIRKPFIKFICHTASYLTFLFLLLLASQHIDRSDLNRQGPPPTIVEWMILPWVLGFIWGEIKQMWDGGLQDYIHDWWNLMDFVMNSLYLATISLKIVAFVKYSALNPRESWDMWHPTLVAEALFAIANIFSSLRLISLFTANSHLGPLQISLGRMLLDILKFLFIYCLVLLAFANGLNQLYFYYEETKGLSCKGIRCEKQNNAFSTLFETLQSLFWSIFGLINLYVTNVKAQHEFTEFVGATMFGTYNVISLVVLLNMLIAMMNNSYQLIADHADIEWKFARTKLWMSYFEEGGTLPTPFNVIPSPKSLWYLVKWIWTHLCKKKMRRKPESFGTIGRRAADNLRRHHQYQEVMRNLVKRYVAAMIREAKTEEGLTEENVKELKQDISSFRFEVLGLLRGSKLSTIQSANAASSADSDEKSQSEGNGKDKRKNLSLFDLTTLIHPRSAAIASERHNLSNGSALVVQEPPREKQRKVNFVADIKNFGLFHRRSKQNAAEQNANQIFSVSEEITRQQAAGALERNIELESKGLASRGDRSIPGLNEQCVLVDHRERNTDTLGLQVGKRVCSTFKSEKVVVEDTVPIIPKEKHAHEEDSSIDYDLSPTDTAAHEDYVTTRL

[6] = cells
[7] = biological target: Cytochrome P450 2C9 (Homo sapiens, UniProt P11712)
[8] = biological target: DNA dC->dU-editing enzyme APOBEC-3A (Homo sapiens, UniProt P31941); experiment: Dose Response confirmation of small molecule APOBEC3A DNA Deaminase Inhibitors via a fluorescence-based single-stranded DNA deaminase assay. [Related pubchem assays (depositor defined):AID493011, AID493024]; format: functional
[9] = biological target: DNA dC->dU-editing enzyme APOBEC-3G (Homo sapiens, UniProt Q9HC16); format: functional;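 also: Dose-response counterscreen measuring inhibition of APOBEC3G DNA deaminase activity, run while confirming APOBEC3A inhibitors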
[10] = biological target: T3, Carboxy-terminal domain RNA polymerase II polypeptide A small phosphatase 1 (Homo sapiens, UniProt Q9GZU7); experiment: CTDSP1 inhibitors, concentration-response, biochemical, absorbance readout, ultra-high-throughput screen actives (AID 540297); format: functional
T3 sequence (Q9GZU7 whole entry): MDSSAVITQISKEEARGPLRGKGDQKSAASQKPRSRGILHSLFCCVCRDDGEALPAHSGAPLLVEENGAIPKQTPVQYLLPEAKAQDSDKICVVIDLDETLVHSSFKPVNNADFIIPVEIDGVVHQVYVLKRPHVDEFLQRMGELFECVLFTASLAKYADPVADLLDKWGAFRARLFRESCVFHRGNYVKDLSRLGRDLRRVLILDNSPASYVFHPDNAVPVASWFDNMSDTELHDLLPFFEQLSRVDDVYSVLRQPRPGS

[11] = Luminescence Cell-Based Dose Confirmation HTS to Identify Activators of 5'UTR Stem-Loop Driven Alpha-Synuclein mRNA Translation in H4 Neuroglioblastoma Cells. [Related pubchem assays: 1829 (Project Summary), 1814 (Primary HTS)]; format: functional
[12] = Luminescence Cell-Based Dose Response HTS to Identify Activators of Luciferase Translation or Activity in H4 […] Cells. [Related pubchem assays: 1829 (Project Summary), 1814 (Primary HTS)]; format: functional
[13] = system: H4; experiment: Luminescence Cell-Based Dose Response HTS to Identify Activators of 5'UTR Stem-Loop Driven Prion Protein mRNA Translation in H4 Neuroglioblastoma Cells. [Related pubchem assays: 1829 (Project Summary), 1814 (Primary HTS)]; format: functional; conditions: Homo sapiens
[14] = microbe, parasite or virus in culture; format: functional; conditions: Mycobacterium tuberculosis
[15] = biological target: T4, Low molecular weight phosphotyrosine protein phosphatase (Homo sapiens, UniProt P24666); format: functional; conditions: read-out: IC50_Mean;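 also: Dose-response confirmation assay measuring inhibition of LMPTP enzyme activity by fluorescence intensity read-out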
T4 sequence (P24666 whole entry): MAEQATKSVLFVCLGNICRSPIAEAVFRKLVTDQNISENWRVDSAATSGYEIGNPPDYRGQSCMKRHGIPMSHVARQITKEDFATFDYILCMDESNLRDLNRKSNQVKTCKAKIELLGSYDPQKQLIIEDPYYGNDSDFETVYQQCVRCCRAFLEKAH

[16] = system: HEK293; experiment: EBV LMP1 TES2 canonical NF-kB signalling blockers – cell-based, HEK293, luciferase, cherry-pick, dose response (AID 588343); format: functional; conditions: Homo sapiens
[17] = biological target: T5, RNA-binding protein pos-1 (Caenorhabditis elegans, UniProt G5EF15); experiment: disruptors of C. elegans POS-1 RNA interaction – biochemical, fluorescence polarization, dose response (AID 1964);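 also: purified POS-1 fused to maltose binding protein made in E. coli; potency of compounds blocking POS-1 binding to fluorescent RNA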
T5 sequence (G5EF15 whole entry): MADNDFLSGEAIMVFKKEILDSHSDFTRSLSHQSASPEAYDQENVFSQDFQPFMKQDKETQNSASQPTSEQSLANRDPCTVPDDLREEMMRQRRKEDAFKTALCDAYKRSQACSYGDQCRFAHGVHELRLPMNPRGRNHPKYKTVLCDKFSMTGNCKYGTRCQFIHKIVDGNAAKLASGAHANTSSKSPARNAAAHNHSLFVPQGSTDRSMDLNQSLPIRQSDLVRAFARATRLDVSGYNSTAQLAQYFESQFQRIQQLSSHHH

[18] = biological target: T6, Zinc finger protein mex-5 (Caenorhabditis elegans, UniProt Q9XUB2); experiment: potency of MEX-5 RNA-binding blockers – biochemical, C. elegans, fluorescence polarization, dose response (AID 1960)
T6 sequence (Q9XUB2 whole entry): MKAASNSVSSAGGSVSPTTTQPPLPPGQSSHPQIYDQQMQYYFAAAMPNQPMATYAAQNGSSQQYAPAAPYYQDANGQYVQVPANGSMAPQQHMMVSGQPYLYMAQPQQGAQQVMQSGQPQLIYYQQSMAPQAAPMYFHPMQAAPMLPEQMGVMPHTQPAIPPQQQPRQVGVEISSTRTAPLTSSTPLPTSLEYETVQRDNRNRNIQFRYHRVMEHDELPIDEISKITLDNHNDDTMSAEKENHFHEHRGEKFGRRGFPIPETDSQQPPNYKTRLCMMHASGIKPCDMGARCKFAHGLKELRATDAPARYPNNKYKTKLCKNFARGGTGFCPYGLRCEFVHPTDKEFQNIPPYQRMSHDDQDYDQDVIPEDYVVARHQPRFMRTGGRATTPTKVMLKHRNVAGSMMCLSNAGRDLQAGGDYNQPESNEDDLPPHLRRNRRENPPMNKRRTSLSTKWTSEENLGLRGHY

[19] = biological target: Troponin, cardiac muscle (Homo sapiens, UniProt P19429+P45379+P63316); experiment: Fluorescence-based biochemical high throughput dose response assay for activators of the calcium sensitivity of cardiac Regulated Thin Filaments (RTF). [Related pubchem assays (depositor defined):AID493008, AID493018, AID504382, AID504383]; format: protein-complex assay
[20] = biological target: Cytochrome P450 3A4 (Homo sapiens, UniProt P08684);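 also: CYP3A4 tested as one member of a cytochrome P450 panel screen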
[21] = system: H9c2; experiment: cells; format: functional, cell-based; conditions: Rattus norvegicus, H9c2, Myocardium;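 also: confirmatory concentration-response retest of ultra-high-throughput screening hits for modulation of myocardial damage; cell death induced by hydrogen peroxide oxidative stress; compound pretreatment for 60 min then peroxide exposure for 2 h; potency is for protecting the cells against peroxide damage rather than for killing them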

Sequence of Cytochrome P450 2C9 (P11712 whole entry): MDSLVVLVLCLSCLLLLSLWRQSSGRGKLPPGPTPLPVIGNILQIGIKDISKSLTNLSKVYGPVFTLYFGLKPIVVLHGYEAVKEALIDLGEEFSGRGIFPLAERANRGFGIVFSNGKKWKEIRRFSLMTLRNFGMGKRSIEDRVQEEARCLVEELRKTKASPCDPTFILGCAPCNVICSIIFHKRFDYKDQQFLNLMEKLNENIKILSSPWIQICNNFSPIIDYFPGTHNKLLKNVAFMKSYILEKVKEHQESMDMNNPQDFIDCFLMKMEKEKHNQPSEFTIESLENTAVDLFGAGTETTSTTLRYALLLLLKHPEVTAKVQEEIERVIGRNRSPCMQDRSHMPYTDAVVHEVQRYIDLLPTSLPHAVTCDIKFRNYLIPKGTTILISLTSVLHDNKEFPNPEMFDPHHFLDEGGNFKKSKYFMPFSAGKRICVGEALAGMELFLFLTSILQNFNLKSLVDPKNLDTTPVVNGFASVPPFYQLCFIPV
Sequence of Glucose-6-phosphate 1-dehydrogenase (P11413 whole entry): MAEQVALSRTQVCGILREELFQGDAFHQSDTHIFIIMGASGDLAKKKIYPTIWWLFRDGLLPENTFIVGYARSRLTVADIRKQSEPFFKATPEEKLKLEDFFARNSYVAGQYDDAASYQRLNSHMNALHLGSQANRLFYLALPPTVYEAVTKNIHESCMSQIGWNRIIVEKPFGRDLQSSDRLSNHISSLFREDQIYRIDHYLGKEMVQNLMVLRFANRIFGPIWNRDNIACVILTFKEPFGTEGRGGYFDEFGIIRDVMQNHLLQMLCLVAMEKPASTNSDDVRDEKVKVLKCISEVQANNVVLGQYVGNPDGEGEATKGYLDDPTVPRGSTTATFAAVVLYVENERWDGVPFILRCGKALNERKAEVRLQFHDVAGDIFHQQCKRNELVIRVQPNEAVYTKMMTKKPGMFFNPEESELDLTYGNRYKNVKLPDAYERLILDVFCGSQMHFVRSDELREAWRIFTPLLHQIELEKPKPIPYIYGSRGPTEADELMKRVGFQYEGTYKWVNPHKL
Sequence of DNA dC->dU-editing enzyme APOBEC-3G (Q9HC16 whole entry, the tested form may be a part): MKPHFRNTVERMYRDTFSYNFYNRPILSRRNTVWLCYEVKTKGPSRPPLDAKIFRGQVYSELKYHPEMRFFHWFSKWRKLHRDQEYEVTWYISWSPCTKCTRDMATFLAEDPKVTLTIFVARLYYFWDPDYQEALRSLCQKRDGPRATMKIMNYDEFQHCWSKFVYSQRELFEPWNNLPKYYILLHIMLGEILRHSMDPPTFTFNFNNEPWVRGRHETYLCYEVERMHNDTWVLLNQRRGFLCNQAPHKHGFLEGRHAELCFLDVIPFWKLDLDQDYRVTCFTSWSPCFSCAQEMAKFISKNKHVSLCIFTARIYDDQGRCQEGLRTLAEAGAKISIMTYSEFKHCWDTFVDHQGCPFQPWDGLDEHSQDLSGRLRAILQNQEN
Sequence of DNA dC->dU-editing enzyme APOBEC-3A (P31941 whole entry): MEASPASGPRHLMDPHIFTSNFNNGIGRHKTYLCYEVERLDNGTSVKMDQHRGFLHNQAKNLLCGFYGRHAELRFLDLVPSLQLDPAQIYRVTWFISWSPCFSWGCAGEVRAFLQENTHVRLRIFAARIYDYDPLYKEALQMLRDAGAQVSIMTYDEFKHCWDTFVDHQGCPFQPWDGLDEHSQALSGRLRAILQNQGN
Sequence of Cytochrome P450 3A4 (P08684 whole entry): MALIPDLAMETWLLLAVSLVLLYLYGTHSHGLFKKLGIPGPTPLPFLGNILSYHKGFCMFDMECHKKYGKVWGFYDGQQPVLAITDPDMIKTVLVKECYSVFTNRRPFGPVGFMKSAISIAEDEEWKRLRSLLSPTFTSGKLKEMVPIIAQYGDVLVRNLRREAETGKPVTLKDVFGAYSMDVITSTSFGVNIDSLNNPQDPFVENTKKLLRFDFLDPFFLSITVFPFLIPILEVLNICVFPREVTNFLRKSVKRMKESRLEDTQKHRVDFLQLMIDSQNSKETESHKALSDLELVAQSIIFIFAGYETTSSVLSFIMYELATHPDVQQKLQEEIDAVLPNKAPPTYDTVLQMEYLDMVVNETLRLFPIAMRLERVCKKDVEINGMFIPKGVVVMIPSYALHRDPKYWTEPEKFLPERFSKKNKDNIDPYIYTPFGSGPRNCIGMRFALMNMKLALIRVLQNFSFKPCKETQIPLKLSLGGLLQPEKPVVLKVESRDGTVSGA

With `COc1cc(Sc2ccc(C)cc2)c(OC)cc1N` the IC50 [1] was > 80 µM (inactive) and the IC50 [2] was 24.8 µM (active).

For `O=C(NCCc1c[nH]cn1)c1ccc(-c2ccccc2)cc1`, the EC50 [3] was < 0.1 µM (active), the EC50 [4] was > 30 µM (not active) and the EC50 [5] was 5.96 µM (active). The EC50 [6] was 0.062 µM (active).

With `CC(=C\C(=O)O)/C(=C/c1ccccc1)C(=O)O` the AC50 [7] was “inconclusive”.

With `COC(=O)c1cnn(C(=O)c2cc(OC)ccc2Br)c1N` the AC50 [7] was “inconclusive”.

In the case of `CCn1c2c(c(C)[n+]1CC)C(=O)CC(C)(C)C2`, the IC50 [8] was 1.89 µM (active), the IC50 [9] was 3.74 µM (active) and the IC50 [10] was 18.9 µM (active).

For `FC(F)(F)c1ccc(Nc2nnnc3ccccc23)cc1`, the EC50 [11] was 7.83 µM (active), the EC50 [12] was 38 µM (active) and the EC50 [13] was 6.68 µM (active). For the same molecule, the CC50 [14] was > 40 µM (active), the IC50 [10] was 8.61 µM (active) and the IC50 [15] was 6.59 µM (active).

For `COC(=O)c1cc(N2CCNCC2)nc2ccccc12`, the EC50 [5] was 1.19 µM (active).

For `Cc1cccc(Cn2cc(C=O)c3ccccc32)c1`, the AC50 [16] was 33.3 µM (active).

For `CC(=O)N1CCc2c(sc(NC(=O)C3CCCN3S(=O)(=O)c3cccs3)c2C(N)=O)C1` (stereo unspecified), the EC50 [17] was 10.2 µM (active), the EC50 [18] was 5.83 µM (active) and the EC50 [19] was 18.5 µM (inactive).

In the case of `Cc1cc(C)c2sc(NC(=O)C3=COCCO3)nc2c1`, the IC50 [1] was > 80 µM (inactive).

In the case of `CCc1nc(NCCc2ccccn2)c2nnn(Cc3ccccc3F)c2n1`, the EC50 [5] was 2.66 µM (active).

With `Cc1ccc(C)c(Cn2c(O)c(N=NC(S)=Nc3ccccc3F)c3ccccc32)c1` the EC50 [3] was 1.17 µM (active), the EC50 [4] was > 60 µM (not active) and the AC50 [16] was 2.44 µM (active).

With `Cc1ccc2c(c1)C1(SCCS1)C(=O)N2` the AC50 [20] was 11.2 µM (inconclusive) and the AC50 [7] was “inconclusive”.

With `Cc1ccc(C)c(S(=O)(=O)N2CCN(C(=O)CCc3nc(O)c4ccccc4n3)CC2)c1` the EC50 [5] was 4.73 µM (active) and the IC50 [21] was > 79 µM (inactive).
